Values quoted from earlier work, collected in patent publication US20240041983A1, “IMPROVED PHARMACEUTICAL FORMULATIONS OF GLP-1 RECEPTOR AGONISTS” (CYPRUMED GMBH, priority 2020, published 2024).

Conditions: in humans

Substance: semaglutide
- t½: ~1 week
